Measured values reported in PubChem BioAssay AID1963850 (Molecular Pharmacology Branch, DTP, NCI, 2024).

System: 192522-019-R-J2-PDC complex tumor spheroid viability
Test: Anticancer human tumor 192522-019-R-J2-PDC patient-derived colon adenocarcinoma cell line growth inhibition [POLQ]
Conditions: for IC50: curve of first compound; for viability, T/C: stronger effect = lower value
Procedure: Multicellular complex tumor spheroid response to Polymerase (POL) inhibitors (novobiocin, ART-558, RP6685) in combination with a variety of drugs and investigational agents in selected tumor cell lines
The POL inhibitors (novobiocin, ART-558, and RP6685) were evaluated both individually and in combination with standard of care and investigational anticancer small molecules within a complex spheroid model of solid tumors. . Complex spheroids include a stromal component modeled by human endothelial cells (HUVEC) and fibroblasts modeled by human mesenchymal stem cells (MSCs). The concentration ranges selected for each drug and investigational agent were based upon clinically achievable concentrations if the clinical Cmax of the agent was known.
Compounds. The drugs and investigational agents: novobiocin (NSC847541), ART-558 (NSC835418), RP-6685 (NSC848927), peposertib (NSC802822), ceralasertib (NSC780249), elimusertib (NSC800525), camonsertib (NSC841442), AZD-1390 (NSC803789), olaparib (NSC753686), talazoparib (NSC767125), rucaparib (NSC756644), sotorasib (NSC818433), MRTX-1133 (NSC836407), SN-38 (NSC673596), topotecan (NSC609699), epotoside (NSC141540), doxorubicin (NSC123127), gemcitabine (NSC613327), 5-fluorouracil (NSC19893), paclitaxel (NSC125973), vemurafenib (NSC761431), MSA-2 (NSC828583), SN-011 (NSC837082), adavosertib (NSC754352), prexasertib (NSC758257), carboplatin (NSC241240) and oxaliplatin (NSC266046), were obtained from the National Cancer Institute (NCI) Developmental Therapeutics Program Chemical Repository (21). The FDA-approved anticancer drug set is available from the Developmental Therapeutics Program at https://dtp.cancer.gov/organization/dscb/obtaining/. […] The stock solutions were prepared in dimethyl sulfoxide (DMSO, Sigma-Aldrich, St. Louis, MO, cat. D2650), except for the platinum compounds which were prepared in saline (Quality Biological, Gaithersburg, MD, cat. 114-055-101), at 800-fold the tested concentration and stored at -70 degrees C prior to their use. All drugs and investigational agents were tested over a range starting from a high concentration at or near the clinical Cmax and decreasing in half-log increments. If the clinical Cmax for an agent had not been determined, the highest concentration tested was 10 microM, except for SN-38, which was tested at a high concentration of 1 microM.
Cell Culture. All cells were maintained in an incubator at 37 degrees C and 5% CO2 with 95% humidity. The PDC lines were cultured according to standard operating procedures established by the NCI PDMR (https://pdmr.cancer.gov). Table 3 of the manuscript, lists the cell lines along with the number of the three cell types plated to form the mct-spheroids and media for tumor cell growth. After thawing, all PDC lines, except 997537-175-T-J1-PDC and 415267-285-R-J2-PDC, were cultured in Matrigel-coated flasks prepared with a working solution of 1X Ham's F-12 nutrient mix, without supplementation (Thermo Fisher Scientific, cat. 11765054), 100 U/mL penicillin-streptomycin (Thermo Fisher Scientific, cat. 15140122), and 2.5% Matrigel (Corning Inc., Corning, NY, cat. 354248) for the first three passages. The two PDC lines 997537-175-T-J1-PDC and 415267-285-R-J2-PDC were cultured on uncoated flasks. The 857933-349-R-J2-PDC line was cultured in 6C/Colon 1B media containing advanced DMEM/F-12 (Thermo Fisher Scientific, cat. 12634028), 10 mM HEPES (Thermo Fisher Scientific, cat. 15630080), 1X GlutaMAX supplement (Thermo Fisher Scientific, cat. 35050061), 0.1 mg/mL primocin (InvivoGen, San Diego, CA, cat. ant-pm-2), 10% defined fetal bovine serum, heat inactivated (HyClone Laboratories Inc., Logan, UT, cat. SH30070.03HI), 50% L-WRN conditioned media (ATCC, cat. CRL-3276), 1.25 mM N-Acetyl-L-cysteine (Sigma-Aldrich, cat. A9165), 10 mM nicotinamide (Sigma-Aldrich, cat. N0636), 1X B-27 supplement (Thermo Fisher Scientific, cat. 17504044), 1X N-2 supplement (Thermo Fisher Scientific, cat. […]

[1] = second compound 0.0316 µM, first compound 0.0316 µM
[2] = second compound 0.0316 µM, first compound 0.1 µM
[3] = second compound 0.0316 µM, first compound 0.316 µM
[4] = second compound 0.0316 µM, first compound 1 µM
[5] = second compound 0.1 µM, first compound 0.0316 µM
[6] = second compound 0.1 µM, first compound 0.1 µM
[7] = second compound 0.1 µM, first compound 0.316 µM
[8] = second compound 0.1 µM, first compound 1 µM
[9] = second compound 0.316 µM, first compound 0.0316 µM
[10] = second compound 0.316 µM, first compound 0.1 µM
[11] = second compound 0.316 µM, first compound 0.316 µM
[12] = second compound 0.316 µM, first compound 1 µM
[13] = second compound 1 µM, first compound 0.0316 µM
[14] = second compound 1 µM, first compound 0.1 µM
[15] = second compound 1 µM, first compound 0.316 µM
[16] = second compound 1 µM, first compound 1 µM
[17] = second compound 3.16 µM, first compound 0.0316 µM
[18] = second compound 3.16 µM, first compound 0.1 µM
[19] = second compound 3.16 µM, first compound 0.316 µM
[20] = second compound 3.16 µM, first compound 1 µM
[21] = second compound 10 µM, first compound 0.0316 µM
[22] = second compound 10 µM, first compound 0.1 µM
[23] = second compound 10 µM, first compound 0.316 µM
[24] = second compound 10 µM, first compound 1 µM
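Also: spheroids exposed to drugs for seven days before reading.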
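For viability, T/C in this document: 100% = DMSO vehicle control viability in luminescence.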

For `COc1cccc(OCCCN)c1-c1cc(Nc2cnc(C#N)cn2)n[nH]1` + COC1C(OC(N)=O)C(O)C(Oc2ccc3c(O)c(NC(=O)c4ccc(O)c(CC=C(C)C)c4)c(=O)oc3c2C)OC1(C)C, which IC50 (second compound 0.0316 µM) is on record?
The IC50 was 14.3 nM.

What about the IC50 (second compound 0.1 µM) of the same molecule?
The IC50 was 15.7 nM.

What about the IC50 (second compound 0.316 µM) of the same molecule?
The IC50 was 15.8 nM.

And the IC50 (second compound 1 µM)?
Its IC50 is 16.6 nM.

And the IC50 (second compound 3.16 µM)?
Its IC50 is 18.6 nM.

What about the IC50 (second compound 10 µM) of the same molecule?
The IC50 was 18.9 nM.

And the viability, T/C (second compound 0.0316 µM, first compound 0.00316 µM)?
The viability, T/C was 96%.

And the viability, T/C (second compound 0.0316 µM, first compound 0.01 µM)?
Its viability, T/C is 55.5%.

And the viability, T/C [1]?
The viability, T/C was 38%.

What about the viability, T/C [2] of the same molecule?
The viability, T/C was 30.8%.

And the viability, T/C [3]?
The viability, T/C was 30.7%.

And the viability, T/C [4]?
The viability, T/C was 30.5%.

What about the viability, T/C (second compound 0.1 µM, first compound 0.00316 µM) of the same molecule?
The viability, T/C was 94.7%.

And the viability, T/C (second compound 0.1 µM, first compound 0.01 µM)?
The viability, T/C was 58.7%.

What about the viability, T/C [5] of the same molecule?
The viability, T/C was 35.3%.

What about the viability, T/C [6] of the same molecule?
Its viability, T/C is 35%.

What about the viability, T/C [7] of the same molecule?
The viability, T/C was 28.9%.

What about the viability, T/C [8] of the same molecule?
The viability, T/C was 28.2%.

What about the viability, T/C (second compound 0.316 µM, first compound 0.00316 µM) of the same molecule?
Its viability, T/C is 90%.

And the viability, T/C (second compound 0.316 µM, first compound 0.01 µM)?
The viability, T/C was 60.6%.

What about the viability, T/C [9] of the same molecule?
Its viability, T/C is 33.6%.

And the viability, T/C [10]?
Its viability, T/C is 31.8%.

And the viability, T/C [11]?
The viability, T/C was 27.2%.

What about the viability, T/C [12] of the same molecule?
The viability, T/C was 29.9%.

And the viability, T/C (second compound 1 µM, first compound 0.00316 µM)?
Its viability, T/C is 84.8%.

And the viability, T/C (second compound 1 µM, first compound 0.01 µM)?
Its viability, T/C is 61.8%.

And the viability, T/C [13]?
Its viability, T/C is 35.2%.

And the viability, T/C [14]?
Its viability, T/C is 30.1%.

What about the viability, T/C [15] of the same molecule?
The viability, T/C was 30.9%.

What about the viability, T/C [16] of the same molecule?
The viability, T/C was 30.5%.

What about the viability, T/C (second compound 3.16 µM, first compound 0.00316 µM) of the same molecule?
Its viability, T/C is 87.6%.

What about the viability, T/C (second compound 3.16 µM, first compound 0.01 µM) of the same molecule?
Its viability, T/C is 69.5%.

What about the viability, T/C [17] of the same molecule?
Its viability, T/C is 33.3%.

And the viability, T/C [18]?
Its viability, T/C is 28.9%.

And the viability, T/C [19]?
Its viability, T/C is 35.6%.

What about the viability, T/C [20] of the same molecule?
The viability, T/C was 32.1%.

What about the viability, T/C (second compound 10 µM, first compound 0.00316 µM) of the same molecule?
The viability, T/C was 89.7%.

And the viability, T/C (second compound 10 µM, first compound 0.01 µM)?
The viability, T/C was 64.6%.

What about the viability, T/C [21] of the same molecule?
The viability, T/C was 38.4%.

What about the viability, T/C [22] of the same molecule?
Its viability, T/C is 32%.

What about the viability, T/C [23] of the same molecule?
The viability, T/C was 32.5%.

What about the viability, T/C [24] of the same molecule?
The viability, T/C was 34%.

How did the IC50 (second compound 0.0316 µM) turn out when `O=C(c1cc(Cc2n[nH]c(=O)c3ccccc23)ccc1F)N1CCN(C(=O)C2CC2)CC1` + COC1C(OC(N)=O)C(O)C(Oc2ccc3c(O)c(NC(=O)c4ccc(O)c(CC=C(C)C)c4)c(=O)oc3c2C)OC1(C)C was run?
Its IC50 is > 10000 nM.

What about the IC50 (second compound 0.1 µM) of the same molecule?
Its IC50 is > 10000 nM.

What about the IC50 (second compound 0.316 µM) of the same molecule?
The IC50 was > 10000 nM.

And the IC50 (second compound 1 µM)?
Its IC50 is > 10000 nM.

And the IC50 (second compound 3.16 µM)?
Its IC50 is > 10000 nM.

And the IC50 (second compound 10 µM)?
The IC50 was > 10000 nM.

And the viability, T/C [1]?
The viability, T/C was 113%.

What about the viability, T/C [2] of the same molecule?
Its viability, T/C is 95.1%.

And the viability, T/C [3]?
The viability, T/C was 110%.

And the viability, T/C [4]?
The viability, T/C was 93%.

What about the viability, T/C (second compound 0.0316 µM, first compound 3.16 µM) of the same molecule?
Its viability, T/C is 102%.

And the viability, T/C (second compound 0.0316 µM, first compound 10 µM)?
The viability, T/C was 104%.

What about the viability, T/C [5] of the same molecule?
The viability, T/C was 105%.

And the viability, T/C [6]?
The viability, T/C was 102%.

And the viability, T/C [7]?
Its viability, T/C is 96.2%.

What about the viability, T/C [8] of the same molecule?
The viability, T/C was 98.2%.

And the viability, T/C (second compound 0.1 µM, first compound 3.16 µM)?
The viability, T/C was 101%.

What about the viability, T/C (second compound 0.1 µM, first compound 10 µM) of the same molecule?
Its viability, T/C is 97.1%.

What about the viability, T/C [9] of the same molecule?
The viability, T/C was 99%.

And the viability, T/C [10]?
The viability, T/C was 98.9%.

What about the viability, T/C [11] of the same molecule?
Its viability, T/C is 95.8%.

What about the viability, T/C [12] of the same molecule?
The viability, T/C was 97%.

And the viability, T/C (second compound 0.316 µM, first compound 3.16 µM)?
Its viability, T/C is 105%.

What about the viability, T/C (second compound 0.316 µM, first compound 10 µM) of the same molecule?
Its viability, T/C is 90.5%.

What about the viability, T/C [13] of the same molecule?
Its viability, T/C is 99.7%.

And the viability, T/C [14]?
The viability, T/C was 98.5%.

What about the viability, T/C [15] of the same molecule?
Its viability, T/C is 100%.

What about the viability, T/C [16] of the same molecule?
The viability, T/C was 97.3%.

What about the viability, T/C (second compound 1 µM, first compound 3.16 µM) of the same molecule?
The viability, T/C was 106%.

And the viability, T/C (second compound 1 µM, first compound 10 µM)?
The viability, T/C was 91.4%.

What about the viability, T/C [17] of the same molecule?
The viability, T/C was 102%.

And the viability, T/C [18]?
Its viability, T/C is 98.8%.

What about the viability, T/C [19] of the same molecule?
Its viability, T/C is 107%.

And the viability, T/C [20]?
Its viability, T/C is 99.8%.

And the viability, T/C (second compound 3.16 µM, first compound 3.16 µM)?
Its viability, T/C is 106%.

And the viability, T/C (second compound 3.16 µM, first compound 10 µM)?
Its viability, T/C is 99.2%.

What about the viability, T/C [21] of the same molecule?
The viability, T/C was 97.9%.

And the viability, T/C [22]?
Its viability, T/C is 96.6%.

And the viability, T/C [23]?
The viability, T/C was 105%.

And the viability, T/C [24]?
The viability, T/C was 109%.

And the viability, T/C (second compound 10 µM, first compound 3.16 µM)?
The viability, T/C was 106%.

What about the viability, T/C (second compound 10 µM, first compound 10 µM) of the same molecule?
The viability, T/C was 101%.
